In ChEMBL document CHEMBL1201862, “PubChem BioAssay data set” (2004):
Active and inactive are the calls of the source.

Tests used:
[1] = target: DNA dC->dU-editing enzyme APOBEC-3G (Homo sapiens, UniProt Q9HC16); type: functional;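 further: Dose-response counterscreen measuring inhibition of APOBEC3G DNA deaminase activity, run while confirming APOBEC3A inhibitors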
[2] = target: DNA dC->dU-editing enzyme APOBEC-3A (Homo sapiens, UniProt P31941); assay: Dose Response confirmation of small molecule APOBEC3A DNA Deaminase Inhibitors via a fluorescence-based single-stranded DNA deaminase assay. [Related pubchem assays (depositor defined):AID493011, AID493024]; type: functional
[3] = tested on: Vero; assay: cells; type: functional; details: Chlorocebus sabaeus
[4] = Luminescence Cell-Based Dose Retest to Confirm Inhibitors of Cancer Stem Cells. [Related pubchem assays (depositor defined):AID2717, AID2721]; type: functional; details: Homo sapiens
[5] = tested on: BJ; assay: cells; type: functional, cell-based; details: Homo sapiens
[6] = tested on: BJ; assay: cytotoxicity toward BJ-TERT-LT-ST fibroblasts, dose response, cell-based, RAS-independent, luminescence (AID 1935); type: functional; details: Homo sapiens;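 further: BJ fibroblasts immortalized with TERT plus LT and ST oncogenes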
[7] = tested on: BJ; assay: cytotoxicity toward BJ-TERT fibroblasts, dose response, cell-based, RAS-independent, luminescence (AID 1933); type: functional; details: Homo sapiens
[8] = cytotoxicity toward DRD oncogenic fibroblasts, dose response, cell-based, non-viral oncogenic, luminescence (AID 1934); type: functional; details: Homo sapiens
[9] = target: T1, Probable nicotinate-nucleotide adenylyltransferase (Staphylococcus aureus (strain N315), UniProt P65502); type: functional, Staphylococcus aureus subsp. aureus N315;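 on IC50 Mean: confirmatory dose-response retesting of NadD inhibitor hits first found in an ultra-high-throughput screen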
[10] = target: T1, Probable nicotinate-nucleotide adenylyltransferase; type: functional, Staphylococcus aureus subsp. aureus N315; details: read-out: IC50_Mean
[11] = tested on: SN12K1; assay: cells; type: functional; details: Homo sapiens
[12] = tested on: P388/ADR; assay: cells; type: functional; details: Mus musculus
[13] = tested on: P388; assay: cells; type: functional; details: Mus musculus
[14] = target: T2, Corticotropin-releasing factor receptor 2/Corticotropin-releasing factor-binding protein (Homo sapiens, UniProt P24387+Q13324); assay: activators of CRF receptor 2 with binding protein – uHTS hits, confirmation (AID 602473); type: functional; details: read-out: EC50_Mean
T2 sequence (Q13324 whole entry): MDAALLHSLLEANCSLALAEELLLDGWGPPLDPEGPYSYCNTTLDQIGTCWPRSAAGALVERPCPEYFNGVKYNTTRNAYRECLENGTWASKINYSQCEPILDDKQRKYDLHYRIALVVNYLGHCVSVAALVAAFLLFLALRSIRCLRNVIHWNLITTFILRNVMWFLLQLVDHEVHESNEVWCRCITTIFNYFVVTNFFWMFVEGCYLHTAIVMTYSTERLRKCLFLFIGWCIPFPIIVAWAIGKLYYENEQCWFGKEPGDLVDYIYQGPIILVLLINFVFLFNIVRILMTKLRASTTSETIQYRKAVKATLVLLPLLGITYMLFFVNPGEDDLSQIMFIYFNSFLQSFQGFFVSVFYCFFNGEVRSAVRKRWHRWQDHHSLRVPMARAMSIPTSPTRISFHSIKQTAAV
T2 sequence (P24387 whole entry): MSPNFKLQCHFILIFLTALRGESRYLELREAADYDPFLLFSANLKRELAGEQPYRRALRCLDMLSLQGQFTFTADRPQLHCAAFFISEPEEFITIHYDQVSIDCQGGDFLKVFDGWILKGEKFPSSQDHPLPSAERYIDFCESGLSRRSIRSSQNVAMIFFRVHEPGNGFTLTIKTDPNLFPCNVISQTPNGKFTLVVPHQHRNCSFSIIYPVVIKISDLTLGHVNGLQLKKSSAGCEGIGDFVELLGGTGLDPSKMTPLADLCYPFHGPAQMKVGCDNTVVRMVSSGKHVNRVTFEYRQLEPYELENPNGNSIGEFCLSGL

[15] = target: T2, Corticotropin-releasing factor receptor 2/Corticotropin-releasing factor-binding protein; assay: Dose Response confirmation of uHTS hits for small molecule antagonists of the CRF-binding protein and CRF-R2 receptor complex.; type: functional; details: read-out: IC50_Mean
[16] = target: T3, Zinc finger protein mex-5 (Caenorhabditis elegans, UniProt Q9XUB2); assay: MEX-5/TCR-2 RNA interaction inhibitors, dose response, biochemical, C. elegans, fluorescence polarization (AID 1960)
T3 sequence (Q9XUB2 whole entry): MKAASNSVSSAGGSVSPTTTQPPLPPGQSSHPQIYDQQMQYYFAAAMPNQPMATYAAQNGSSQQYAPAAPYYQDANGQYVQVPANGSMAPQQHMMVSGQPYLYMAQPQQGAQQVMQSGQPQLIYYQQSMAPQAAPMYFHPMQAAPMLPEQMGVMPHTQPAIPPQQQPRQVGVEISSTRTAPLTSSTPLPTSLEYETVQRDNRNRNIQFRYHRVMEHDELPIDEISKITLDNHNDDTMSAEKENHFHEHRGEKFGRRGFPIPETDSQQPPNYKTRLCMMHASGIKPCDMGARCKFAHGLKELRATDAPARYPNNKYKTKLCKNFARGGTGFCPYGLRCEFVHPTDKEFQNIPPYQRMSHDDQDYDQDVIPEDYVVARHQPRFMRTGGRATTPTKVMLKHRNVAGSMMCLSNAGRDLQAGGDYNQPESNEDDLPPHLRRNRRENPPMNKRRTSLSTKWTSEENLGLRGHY

[17] = target: T4, RNA-binding protein pos-1 (Caenorhabditis elegans, UniProt G5EF15); assay: inhibitors of POS-1/mex-3 RNA binding, dose response, biochemical, fluorescence polarization (AID 1964);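 further: purified POS-1 fused to maltose binding protein made in E. coli; potency of compounds blocking POS-1 binding to fluorescent RNA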
T4 sequence (G5EF15 whole entry): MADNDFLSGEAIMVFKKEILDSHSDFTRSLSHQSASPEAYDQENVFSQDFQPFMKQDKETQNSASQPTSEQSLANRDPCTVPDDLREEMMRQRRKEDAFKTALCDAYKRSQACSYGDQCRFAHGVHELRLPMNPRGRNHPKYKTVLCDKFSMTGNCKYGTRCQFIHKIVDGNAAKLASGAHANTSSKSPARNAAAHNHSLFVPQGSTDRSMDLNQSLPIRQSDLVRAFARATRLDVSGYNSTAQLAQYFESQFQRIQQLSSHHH

[18] = inhibitors of clade B AD8 Env fusion, dose response, cell-based, cherry-pick (AID 652062); type: functional;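 further: luciferase signal from cell-cell fusion driven by HIV-1 clade B AD8 Env; potency is for inhibitors of fusion seen as a drop in luminescence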
[19] = inhibitors of HIV Env-driven cell fusion, dose response, cherry-pick (AID 652057); type: functional, cell-based
[20] = target: T5, Heat shock factor protein 1 (Mus musculus, UniProt P38532); assay: HSF1 potentiators in luciferase reporter cells, confirmation, cell-based, NIH3T3, luminescence, dose retest (AID 435004); type: functional;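 further: stress induced by proteasome inhibitor MG132 added 30 min after compound; luciferase reporter driven by HSF1 response element in NIH3T3 cells; actives raise luminescence as potentiators of the MG132 stress response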
T5 sequence (P38532 whole entry): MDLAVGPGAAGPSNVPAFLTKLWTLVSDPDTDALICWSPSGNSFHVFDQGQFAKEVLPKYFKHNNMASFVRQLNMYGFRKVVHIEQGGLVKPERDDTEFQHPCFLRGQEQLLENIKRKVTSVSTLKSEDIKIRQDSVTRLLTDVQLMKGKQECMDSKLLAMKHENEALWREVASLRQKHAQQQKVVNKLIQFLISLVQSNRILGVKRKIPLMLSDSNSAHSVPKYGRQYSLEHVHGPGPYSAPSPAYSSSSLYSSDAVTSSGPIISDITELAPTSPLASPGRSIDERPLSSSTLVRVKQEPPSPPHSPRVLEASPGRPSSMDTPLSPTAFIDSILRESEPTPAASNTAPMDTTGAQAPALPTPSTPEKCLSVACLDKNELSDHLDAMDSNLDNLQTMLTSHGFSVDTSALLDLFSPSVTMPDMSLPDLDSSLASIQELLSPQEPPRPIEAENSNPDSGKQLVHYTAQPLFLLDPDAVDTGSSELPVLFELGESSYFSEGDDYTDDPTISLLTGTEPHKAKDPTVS

T1 sequence (P65502 whole entry): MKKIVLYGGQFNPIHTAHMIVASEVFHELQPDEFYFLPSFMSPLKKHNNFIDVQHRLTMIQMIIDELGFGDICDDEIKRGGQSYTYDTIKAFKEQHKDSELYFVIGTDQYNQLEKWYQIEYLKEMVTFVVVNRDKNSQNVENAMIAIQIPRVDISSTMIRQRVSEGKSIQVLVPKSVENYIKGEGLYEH
DNA dC->dU-editing enzyme APOBEC-3A, sequence (P31941 whole entry): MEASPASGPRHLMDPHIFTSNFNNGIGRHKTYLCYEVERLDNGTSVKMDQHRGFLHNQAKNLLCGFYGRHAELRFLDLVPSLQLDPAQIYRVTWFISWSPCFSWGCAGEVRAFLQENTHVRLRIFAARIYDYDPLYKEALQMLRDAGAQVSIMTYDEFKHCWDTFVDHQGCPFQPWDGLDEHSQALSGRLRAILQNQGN
DNA dC->dU-editing enzyme APOBEC-3G, sequence (Q9HC16 whole entry): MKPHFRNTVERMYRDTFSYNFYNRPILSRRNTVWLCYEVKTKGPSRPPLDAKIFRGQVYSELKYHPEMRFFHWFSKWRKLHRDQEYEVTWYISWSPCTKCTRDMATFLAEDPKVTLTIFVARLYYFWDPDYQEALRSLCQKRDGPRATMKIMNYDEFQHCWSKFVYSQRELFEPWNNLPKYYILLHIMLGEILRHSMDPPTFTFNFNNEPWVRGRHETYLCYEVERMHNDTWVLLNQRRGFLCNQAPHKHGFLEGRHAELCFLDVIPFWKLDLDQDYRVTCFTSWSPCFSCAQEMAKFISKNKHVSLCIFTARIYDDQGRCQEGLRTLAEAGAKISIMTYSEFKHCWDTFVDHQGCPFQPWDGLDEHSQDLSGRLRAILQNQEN

With `NS(=O)(=O)c1cc(C(=O)OCC(=O)Nc2ccc3[nH]c(O)nc3c2)ccc1Cl` the IC50 [1] was 8.99 µM (active) and the IC50 [2] was 10.4 µM (active).

In the case of `CCSc1nnc(NC(=O)NC(CC)(C(F)(F)F)C(F)(F)F)s1`, the CC50 [3] is reported as 16.5 µM (active) and the AC50 [4] is reported as 7.03 µM (active).

In the case of `Cc1cc2ccccn2c1C(=O)c1ccc(Cl)c([N+](=O)[O-])c1`, the EC50 [5] is reported as > 150 µM (not active), the EC50 [6] is reported as > 150 µM (inconclusive) and the EC50 [7] is reported as > 150 µM (not active). For the same molecule, the EC50 [8] was > 150 µM (not active).

In the case of `O=S(=O)(NC(=Nc1ccc(Cl)c(S(=O)(=O)Nc2ccccc2Cl)c1)c1ccc(F)cc1)c1ccccc1`, the IC50 [9] is reported as 13.7 µM (active) and the IC50 [10] is reported as 80 µM (inactive).

In the case of `COc1cc(NCc2ccc3nc(N)nc(N)c3c2C)cc(OC)c1OC`, the GI50 [11] is reported as 0.025 µM (active), the GI50 [12] is reported as 0.025 µM (active) and the GI50 [13] is reported as 0.025 µM (active).

With `Cc1ccccc1COc1ccc(C(=O)C2=C(O)C(=O)N(CCCn3ccnc3)C2c2ccco2)cc1` (stereo not drawn) the EC50 [14] was > 53 µM (inactive), the IC50 [9] was 10.5 µM (active) and the IC50 [15] was > 47.1 µM (inactive). The IC50 [10] was 80 µM (inactive).

For `CSc1cc(=O)n2c3ccccc3c3ccnc1c32`, the GI50 [11] was 81.5 µM (inactive), the GI50 [12] was > 100 µM (inactive) and the GI50 [13] was > 100 µM (inactive).

With `CCc1n(CC(O)COCc2ccccc2)c2ccccc2[n+]1C` (stereo not drawn) the IC50 [1] was 3.14 µM (active) and the IC50 [2] was 2.36 µM (active).

In the case of `CCOCCCn1/c(=N/C(=O)c2ccc(OC)c(OC)c2)c(C#N)cc2c(=O)n3cccc(C)c3nc21`, the EC50 [16] is reported as 35.4 µM (active) and the EC50 [17] is reported as 26.8 µM (active).

With `C[C@H](CO)N1C[C@H](C)[C@H](CN(C)Cc2cccc(F)c2)OCc2ccccc2-c2ccccc2C1=O` the AC50 [18] was < 0.26 µM (active) and the AC50 [19] was < 0.26 µM (active).

With `CC1(C)CC(=O)C2=C(C1)N1C(=C(C#N)C2c2ccc(Cl)cc2)N=C(N)c2ccccc21` (stereo not drawn) the CC50 [3] was > 25 µM (active) and the EC50 [20] was > 260 µM (inactive).

For `CCOC(=O)c1ccc2c(c1)C1C=CCC1C(C(=O)OCC)N2` (stereo not drawn), the EC50 [16] was > 300 µM (not active) and the EC50 [17] was > 300 µM (not active).

With `Cc1cn(C2CC(O)C(CO)O2)c(=O)[nH]c1=O` (stereo not drawn) the GI50 [11] was 857 µM (inactive), the GI50 [12] was 91.8 µM (inactive) and the GI50 [13] was 57.4 µM (inactive).
